# Assay results from article PMC4770093, “The role of kinetic context in apparent biased agonism at GPCRs” (Nature Communications, 2016).
# “And” between values parts separate entries of the source, which are not always exact repeats. Equal entries are not always repeated.
# What was measured:
# [1] = molecular target: T1, D2LR (Homo sapiens, UniProt P14416); assay: β-Arrestin-2 recruitment (BRET); assay type: cell-based; set-up: expressed in transfected cells; settings: 5 minute timepoint
# Description: β-Arrestin-2 recruitment. […] To assess β-arrestin-2 recruitment to the D2LR, the cells were transfected with 1 μg Rluc8-tagged D2LR, 4 μg YFP–β-arrestin-2 and 2 μg GRK2. […] The cells were incubated with Coelenterazine (Promega) at a final concentration of 5 μM for 5 min, followed by stimulation with the agonists for an additional 5 min before the BRET readings were captured.
# [2] = molecular target: T1, D2LR; assay: xCELLigence cellular impedance (CI) assay; assay type: cell-based; set-up: expressed in transfected cells; settings: for Emax CI: relative to the maximal response of ropinirole
# Description: Changes in CI on ligand stimulation were measured using the xCELLigence system (Roche Applied Science). The baseline cell index of each well of a 96-well E-plate was measured in the presence of growth medium before cell seeding. Cells were seeded at a density of 20,000 cells per well and grown for 16–20 h followed by 4 h serum starvation. Cells were treated with the ligands and the cell index values were obtained immediately after ligand stimulation every 15 s for a total time of 90 min. The retrieved cell index values were then normalized by dividing the cell index at the time of ligand addition followed by subtraction of the vehicle control at each time point.
# [3] = molecular target: T1, D2LR; assay: Inhibition of forskolin-induced cAMP production (BRET CAMYEL biosensor); settings: for Emax cAMP: relative to the maximal response of ropinirole; for Inhibition of cAMP production measured using a CAMYEL BRET biosensor, Net BRET: single experiments n = 1, 2, 3
# Description: Flp-In-CHO cells stably expressing the D2LR were seeded at a density of 2,000,000 cells per 10-cm dish and were transfected the following day using polyethylenimine as the transfection reagent. The cells were transfected with 3 μg CAMYEL, to allow the detection of cAMP levels within the cells. Twenty-four hours after transfection, the cells were plated into 96-well CulturPlates (PerkinElmer) and grown overnight. The cells were equilibrated in Hank's balanced salt solution at 37 °C (or 25 °C when indicated) before starting the experiment. The cells were co-stimulated with the agonists and 10 μM forskolin for the indicated timeframes when the BRET readings were captured. Coelenterazine (Promega) was added at a final concentration of 5 μM at least 3 min before measurement. […] Net BRET was determined by subtraction of the vehicle control co-added with 10 μM forskolin.
# [4] = 5 minute timepoint, Flp-In-CHO-D2LR
# [5] = 5 minute timepoint, dopamine as reference agonist
# T1 sequence (P14416 whole entry): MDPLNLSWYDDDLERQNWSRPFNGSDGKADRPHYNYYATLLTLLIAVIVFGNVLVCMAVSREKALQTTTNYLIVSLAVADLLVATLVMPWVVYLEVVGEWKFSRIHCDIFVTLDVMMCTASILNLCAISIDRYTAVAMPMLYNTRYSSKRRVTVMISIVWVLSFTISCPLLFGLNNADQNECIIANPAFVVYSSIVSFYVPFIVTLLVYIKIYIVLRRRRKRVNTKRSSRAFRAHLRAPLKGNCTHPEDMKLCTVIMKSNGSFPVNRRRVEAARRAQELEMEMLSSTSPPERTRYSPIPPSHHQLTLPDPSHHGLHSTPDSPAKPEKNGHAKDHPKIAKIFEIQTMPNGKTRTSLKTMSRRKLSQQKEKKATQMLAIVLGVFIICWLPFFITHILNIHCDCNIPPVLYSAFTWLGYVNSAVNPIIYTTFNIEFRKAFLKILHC
smiles,measurement,setting,value
"CN1CCN(c2cccc3[nH]c(=O)oc23)CC1 [Pardoprunox, pardoprunox]",Log(τ/KA) β-arrestin2,[1]; ND = no agonist activity detected,6.80 ± 0.29
same,ΔLog(τ/KA) β-arrestin2,[1]; dopamine as reference agonist,0.47 ± 0.32
same,pEC50 CI,[2]; 2 min,9.30
same,Emax CI,[2]; 2 min,75 ± 3.6
same,pEC50 CI,[2]; 5 min,9.41
same,Emax CI,[2]; 5 min,76 ± 2.7
same,Log(τ/KA) Cellular impedance,[2]; [4],9.29 ± 0.06
same,ΔLog(τ/KA) Cellular impedance,[2]; [5],0.74 ± 0.07
same,pEC50 CI,[2]; 10 min,9.22
same,Emax CI,[2]; 10 min,70 ± 2.2
same,pEC50 CI,[2]; 15 min,9.20
same,Emax CI,[2]; 15 min,67 ± 2.5
same,pEC50 CI,[2]; 30 min,9.06
same,Emax CI,[2]; 30 min,62 ± 2.9
same,pEC50 CI,[2]; 45 min,9.02
same,Emax CI,[2]; 45 min,59 ± 2.4
same,pEC50 CI,[2]; 60 min,8.95
same,Emax CI,[2]; 60 min,57 ± 2.2
same,pEC50 CI,[2]; 75 min,8.87
same,Emax CI,[2]; 75 min,54 ± 2.1
same,pEC50 CI,[2]; 90 min,8.80
same,Emax CI,[2]; 90 min,52 ± 2.0
same,pEC50 cAMP,[3]; 2 min,8.98
same,Emax cAMP,[3]; 2 min,87 ± 1.9
same,pEC50 cAMP,[3]; 5 min,8.69
same,Emax cAMP,[3]; 5 min,87 ± 1.5
same,Log(τ/KA) cAMP,[3]; [4],8.64 ± 0.05
same,ΔLog(τ/KA) cAMP,[3]; [5],0.58 ± 0.07
same,pEC50 cAMP,[3]; 10 min,8.39
same,Emax cAMP,[3]; 10 min,86 ± 1.4
same,pEC50 cAMP,[3]; 15 min,8.33
same,Emax cAMP,[3]; 15 min,87 ± 1.6
same,pEC50 cAMP,[3]; 30 min,8.46
same,Emax cAMP,[3]; 30 min,85 ± 2.1
same,pEC50 cAMP,[3]; 45 min,8.03
same,Emax cAMP,[3]; 45 min,82 ± 1.4
same,pEC50 cAMP,[3]; 60 min,7.82
same,Emax cAMP,[3]; 60 min,74 ± 1.8
same,pEC50 cAMP,[3]; 75 min,8.04
same,Emax cAMP,[3]; 75 min,84 ± 2.2
same,pEC50 cAMP,[3]; 90 min,7.83
same,Emax cAMP,[3]; 90 min,81 ± 1.6
same,"Inhibition of cAMP production measured using a CAMYEL BRET biosensor, Net BRET",[3]; time 2.21667 mins,0.09312 and 0.1119 and 0.09462
same,"Inhibition of cAMP production measured using a CAMYEL BRET biosensor, Net BRET",[3]; time 2.58333 mins,0.09848 and 0.1094 and 0.0984
same,"Inhibition of cAMP production measured using a CAMYEL BRET biosensor, Net BRET",[3]; time 2.95 mins,0.1044 and 0.1291 and 0.0949
same,"Inhibition of cAMP production measured using a CAMYEL BRET biosensor, Net BRET",[3]; time 3.31667 mins,0.1072 and 0.1248 and 0.1125
same,"Inhibition of cAMP production measured using a CAMYEL BRET biosensor, Net BRET",[3]; time 3.68333 mins,0.1144 and 0.1213 and 0.1135
same,"Inhibition of cAMP production measured using a CAMYEL BRET biosensor, Net BRET",[3]; time 4.05 mins,0.1221 and 0.1382 and 0.1172
same,"Inhibition of cAMP production measured using a CAMYEL BRET biosensor, Net BRET",[3]; time 4.41667 mins,0.1176 and 0.1369 and 0.114
same,"Inhibition of cAMP production measured using a CAMYEL BRET biosensor, Net BRET",[3]; time 4.78333 mins,0.1323 and 0.136 and 0.1109
same,"Inhibition of cAMP production measured using a CAMYEL BRET biosensor, Net BRET",[3]; time 5.15 mins,0.1365 and 0.1389 and 0.1171
same,"Inhibition of cAMP production measured using a CAMYEL BRET biosensor, Net BRET",[3]; time 5.51667 mins,0.1301 and 0.1395 and 0.116
same,"Inhibition of cAMP production measured using a CAMYEL BRET biosensor, Net BRET",[3]; time 5.88333 mins,0.1412 and 0.1297 and 0.1213
same,"Inhibition of cAMP production measured using a CAMYEL BRET biosensor, Net BRET",[3]; time 6.25 mins,0.1339 and 0.1324 and 0.1196
same,"Inhibition of cAMP production measured using a CAMYEL BRET biosensor, Net BRET",[3]; time 6.61667 mins,0.1245 and 0.1374 and 0.113
same,"Inhibition of cAMP production measured using a CAMYEL BRET biosensor, Net BRET",[3]; time 6.98333 mins,0.1378 and 0.1302 and 0.1147
same,"Inhibition of cAMP production measured using a CAMYEL BRET biosensor, Net BRET",[3]; time 7.35 mins,0.1418 and 0.1291 and 0.1123
same,"Inhibition of cAMP production measured using a CAMYEL BRET biosensor, Net BRET",[3]; time 7.71667 mins,0.1394 and 0.1366 and 0.1233
same,"Inhibition of cAMP production measured using a CAMYEL BRET biosensor, Net BRET",[3]; time 8.08333 mins,0.1443 and 0.1378 and 0.1166
same,"Inhibition of cAMP production measured using a CAMYEL BRET biosensor, Net BRET",[3]; time 8.45 mins,0.1408 and 0.1371 and 0.1127
same,"Inhibition of cAMP production measured using a CAMYEL BRET biosensor, Net BRET",[3]; time 8.81667 mins,0.144 and 0.1435 and 0.1231
same,"Inhibition of cAMP production measured using a CAMYEL BRET biosensor, Net BRET",[3]; time 9.18333 mins,0.1482 and 0.1437 and 0.1124
same,"Inhibition of cAMP production measured using a CAMYEL BRET biosensor, Net BRET",[3]; time 9.55 mins,0.1472 and 0.1422 and 0.1225
same,"Inhibition of cAMP production measured using a CAMYEL BRET biosensor, Net BRET",[3]; time 9.91667 mins,0.1503 and 0.1391 and 0.1248
same,"Inhibition of cAMP production measured using a CAMYEL BRET biosensor, Net BRET",[3]; time 10.2833 mins,0.1418 and 0.1435 and 0.1207
same,"Inhibition of cAMP production measured using a CAMYEL BRET biosensor, Net BRET",[3]; time 10.65 mins,0.1434 and 0.1464 and 0.1244
same,"Inhibition of cAMP production measured using a CAMYEL BRET biosensor, Net BRET",[3]; time 11.0167 mins,0.1459 and 0.1412 and 0.1263
same,"Inhibition of cAMP production measured using a CAMYEL BRET biosensor, Net BRET",[3]; time 11.3833 mins,0.1508 and 0.1374 and 0.1263
same,"Inhibition of cAMP production measured using a CAMYEL BRET biosensor, Net BRET",[3]; time 11.75 mins,0.1476 and 0.1469 and 0.1207
same,"Inhibition of cAMP production measured using a CAMYEL BRET biosensor, Net BRET",[3]; time 12.1167 mins,0.1454 and 0.1457 and 0.1265
same,"Inhibition of cAMP production measured using a CAMYEL BRET biosensor, Net BRET",[3]; time 12.4833 mins,0.14 and 0.1421 and 0.1315
same,"Inhibition of cAMP production measured using a CAMYEL BRET biosensor, Net BRET",[3]; time 12.85 mins,0.1413 and 0.1515 and 0.1219
same,"Inhibition of cAMP production measured using a CAMYEL BRET biosensor, Net BRET",[3]; time 13.2167 mins,0.1418 and 0.1452 and 0.1337
same,"Inhibition of cAMP production measured using a CAMYEL BRET biosensor, Net BRET",[3]; time 13.5833 mins,0.1514 and 0.1571 and 0.1315
same,"Inhibition of cAMP production measured using a CAMYEL BRET biosensor, Net BRET",[3]; time 13.95 mins,0.1501 and 0.1517 and 0.1357
same,"Inhibition of cAMP production measured using a CAMYEL BRET biosensor, Net BRET",[3]; time 14.3167 mins,0.1522
